The numbers were not newly measured in patent publication US20130108701A1, “Solid Dosage Forms of Antipsychotics” (priority 2010, published 2013), which cites them from elsewhere.

Counter-ions that a name gives are not always drawn.

Experiment in series [1]: not given
This is another data set of the same source.

As for `O=C1Cc2cc(CCN3CCN(c4nsc5ccccc45)CC3)c(Cl)cc2N1` [Ziprasidone hydrochloride, 5-[2-[4-(1,2-benzisothiazol-3-yl)-1-piperazinyl]ethyl]-6-chloro-1,3-dihydro-2H-indol-2-one], the permeability entry is “high”. In addition, the aqueous solubility result in series [1] is “relatively poor”.
